Results: paper PMC8761492 (Life Science Alliance, 2022)
Where two headings read alike, the source gives them in different places. Starred links: 1 amine or outer side, 2 acyl side, 3 side chain; linkers in the order of their positions; H or OH if unused. Positions of bridges follow the written chain, without caps; N, C: chain ends. Non-standard residues stand in square brackets, D forms with d. Residues, ends and D or L forms follow the SMILES beside them. *: point of attachment. X1 = CC[C@H](C)[C@@H](N[*:1])[C@@H](O)CC(=O)O[C@H](C(=O)[C@H](C)C(=O)[*:2])C(C)C; NMeY = CN[C@@H](Cc1ccc(O)cc1)C(=O)O; dNMeL = CN[C@H](CC(C)C)C(=O)O; Pyruvoyl = CC(=O)C(=O)*

Legend:
COVID-19 = test: APLICOV-PC: mortality, ventilation, ICU admission and oxygen therapy; assay type: in vivo, human; conditions: for Patients requiring invasive mechanical ventilation and/or intensive care unit admission / Patients requiring noninvasive mechanical ventilation: Day 16 to Day 31
Experimental: Secondary outcomes included change from baseline of viral load, as evaluated by quantitative PCR via central laboratory on nasopharyngeal exudate or sampled from the lower respiratory tract within 48 h before first administration of plitidepsin and on days 4, 7, 15, and 31, and the percentage of patients requiring oxygen therapy, noninvasive mechanical ventilation, invasive mechanical ventilation and/or intensive care unit admission, and the percentage of patients with a fatal outcome on days 7, 15, and 31.
Analysis for preliminary evidence of efficacy was performed on all patients who had efficacy assessments at baseline and at least one subsequent assessment during treatment.
In regards with subgroup analyses, safety and efficacy outcomes also were assessed by age-group (<65 versus ≥65 yr) and efficacy outcomes were assessed by disease severity at baseline. Safety outcomes were also assessed before and after the implementation of the protocol amendment.

[1] = human, cited from earlier work
[2] = day 1 to Day 7, Moderate (N=23)
[3] = day 1 to Day 15, Moderate (N=23)
[4] = day 1 to Day 31, Moderate (N=23)

In the case of `CC[C@H](C)[C@H]1NC(=O)[C@@H](NC(=O)[C@@H](CC(C)C)N(C)C(=O)[C@@H]2CCCN2C(=O)C(C)=O)[C@@H](C)OC(=O)[C@H](Cc2ccc(OC)cc2)N(C)C(=O)[C@@H]2CCCN2C(=O)[C@H](CC(C)C)NC(=O)[C@@H](C)C(=O)[C@H](C(C)C)OC(=O)C[C@@H]1O` [Plitidepsin] (Pyruvoyl-P[dNMeL]T[X1]LP[NMeY](Me); ester 3-C), the “Patients requiring oxygen therapy at” value (COVID-19; Day 15, 1.5 mg (N=14)) is reported as 4 (28.6), the “Patients requiring oxygen therapy at” value (COVID-19; Day 15, 2.0 mg (N = 15)) is reported as 1 (6.7) and the “Patients requiring oxygen therapy at” value (COVID-19; Day 15, 2.5 mg (N=15)) is reported as 4 (26.7). The “Patients requiring oxygen therapy at” value (COVID-19; Day 15, Total (N=44)) was 9 (20.5), the “Patients requiring invasive mechanical ventilation and/or intensive care unit admission” value (COVID-19; 1.5 mg (N = 14)) was 1 (7.1) and the “Patients requiring noninvasive mechanical ventilation” value (COVID-19; 1.5 mg (N = 14)) was 1 (7.1). The “Patients requiring invasive mechanical ventilation and/or intensive care unit admission” value (COVID-19; 2.0 mg (N = 15)) was 1 (6.7), the “Patients requiring noninvasive mechanical ventilation” value (COVID-19; 2.0 mg (N = 15)) was 1 (6.7) and the “Patients requiring invasive mechanical ventilation and/or intensive care unit admission” value (COVID-19; 2.5 mg (N = 15)) was 1 (6.7). The “Patients requiring noninvasive mechanical ventilation” value (COVID-19; 2.5 mg (N = 15)) was 1 (6.7), the “Patients requiring invasive mechanical ventilation and/or intensive care unit admission” value (COVID-19; Total (N = 44)) was 3 (6.8) and the “Patients requiring noninvasive mechanical ventilation” value (COVID-19; Total (N = 44)) was 3 (6.8). For the same molecule, the “Patients requiring oxygen therapy at” value (COVID-19; Day 31, 1.5 mg (N=14)) was 0, the “Patients requiring oxygen therapy at” value (COVID-19; Day 31, 2.0 mg (N = 15)) was 2 (13.3) and the “Patients requiring oxygen therapy at” value (COVID-19; Day 31, 2.5 mg (N=15)) was 1 (6.7). For the same molecule, the “Patients requiring oxygen therapy at” value (COVID-19; Day 31, Total (N=44)) was 3 (6.8), the “Mortality from Day 1 to Day 31” value (COVID-19; Total (N = 44)) was 2 (4.5) and the “Patients requiring oxygen therapy (low flow) at” value (COVID-19; day 1 to Day 7, Mild (N=6)) was 33.3%. The “Patients requiring oxygen therapy at” value (COVID-19; day 1 to Day 7, Mild (N=6)) was 33.3%, the “Patients requiring non-invasive mechanical ventilation at” value (COVID-19; [2]) was 4.3% and the “Patients requiring oxygen therapy (high flow) at” value (COVID-19; [2]) was 4.3%. The “Patients requiring oxygen therapy (low flow) at” value (COVID-19; [2]) was 78.3%, the “Patients requiring oxygen therapy at” value (COVID-19; [2]) was 78.3% and the “Patients requiring ICU admission at” value (COVID-19; day 1 to Day 7, Severe (N=15)) was 33.3%. For the same molecule, the “Patients requiring invasive mechanical ventilation and/or ICU admission at” value (COVID-19; day 1 to Day 7, Severe (N=15)) was 33.3%, the “Patients requiring non-invasive mechanical ventilation at” value (COVID-19; day 1 to Day 7, Severe (N=15)) was 26.7% and the “Patients requiring oxygen therapy (high flow) at” value (COVID-19; day 1 to Day 7, Severe (N=15)) was 26.7%. For the same molecule, the “Patients requiring oxygen therapy (low flow) at” value (COVID-19; day 1 to Day 7, Severe (N=15)) was 100%, the “Patients requiring oxygen therapy at” value (COVID-19; day 1 to Day 7, Severe (N=15)) was 100% and the “Patients requiring oxygen therapy (low flow) at” value (COVID-19; day 1 to Day 15, Mild (N=6)) was 33.3%. For the same molecule, the “Patients requiring oxygen therapy at” value (COVID-19; day 1 to Day 15, Mild (N=6)) was 33.3%, the “Patients requiring non-invasive mechanical ventilation at” value (COVID-19; [3]) was 4.3% and the “Patients requiring oxygen therapy (high flow) at” value (COVID-19; [3]) was 4.3%. The “Patients requiring oxygen therapy (low flow) at” value (COVID-19; [3]) was 78.3%, the “Patients requiring oxygen therapy at” value (COVID-19; [3]) was 78.3% and the “Patients requiring ICU admission at” value (COVID-19; day 1 to Day 15, Severe (N=15)) was 40%. The “Patients requiring invasive mechanical ventilation and/or ICU admission at” value (COVID-19; day 1 to Day 15, Severe (N=15)) was 40%, the “Patients requiring invasive mechanical ventilation at” value (COVID-19; day 1 to Day 15, Severe (N=15)) was 13.3% and the “Patients requiring non-invasive mechanical ventilation at” value (COVID-19; day 1 to Day 15, Severe (N=15)) was 40%. The “Patients requiring oxygen therapy (high flow) at” value (COVID-19; day 1 to Day 15, Severe (N=15)) was 40%, the “Patients requiring oxygen therapy (low flow) at” value (COVID-19; day 1 to Day 15, Severe (N=15)) was 100% and the “Patients requiring oxygen therapy at” value (COVID-19; day 1 to Day 15, Severe (N=15)) was 100%. For the same molecule, the “Patients requiring oxygen therapy (low flow) at” value (COVID-19; day 1 to Day 31, Mild (N=6)) was 33.3%, the “Patients requiring oxygen therapy at” value (COVID-19; day 1 to Day 31, Mild (N=6)) was 33.3% and the “Patients requiring non-invasive mechanical ventilation at” value (COVID-19; [4]) was 4.3%. The “Patients requiring oxygen therapy (high flow) at” value (COVID-19; [4]) was 4.3%, the “Patients requiring oxygen therapy (low flow) at” value (COVID-19; [4]) was 78.3% and the “Patients requiring oxygen therapy at” value (COVID-19; [4]) was 78.3%. The Deaths at (COVID-19; day 1 to Day 31, Severe (N=15)) was 13.3%, the “Patients requiring ICU admission at” value (COVID-19; day 1 to Day 31, Severe (N=15)) was 40% and the “Patients requiring invasive mechanical ventilation and/or ICU admission at” value (COVID-19; day 1 to Day 31, Severe (N=15)) was 40%. For the same molecule, the “Patients requiring invasive mechanical ventilation at” value (COVID-19; day 1 to Day 31, Severe (N=15)) was 20%, the “Patients requiring non-invasive mechanical ventilation at” value (COVID-19; day 1 to Day 31, Severe (N=15)) was 46.7% and the “Patients requiring oxygen therapy (high flow) at” value (COVID-19; day 1 to Day 31, Severe (N=15)) was 40%. For the same molecule, the “Patients requiring oxygen therapy (low flow) at” value (COVID-19; day 1 to Day 31, Severe (N=15)) was 100%, the “Patients requiring oxygen therapy at” value (COVID-19; day 1 to Day 31, Severe (N=15)) was 100% and the “patients requiring nonmechanical invasive ventilation” value (COVID-19; moderate disease, one patient) was 4.3%. For the same molecule, the “patients requiring intensive care support” value (COVID-19; severe disease at baseline, 6 of 15) was 40%, the “patients requiring nonmechanical invasive ventilation” value (COVID-19; severe disease, seven patients) was 46.7% and the “patients requiring intensive care support” value (COVID-19; six of 44 patients) was 13.6%. The half-life ([1]; plasma concentrations, non-compartmental analysis, ref study APL-B-015-14) was 48.1 h and the half-life ([1]; whole blood concentrations, ref pharmacokinetic population analysis) was 161 h.
